Assay results published in patent publication US12214021B2 (CHINA AGRICULTURAL UNIVERSITY, priority 2018, dated 2025).

Experiments:
[1] = system: osteoblasts; experiment: proliferation of osteoblasts promoted by LF (MTT method); format: cell-based; settings: 1 nM together with LF, FIG. 4
Protocol: Based on transcriptome data, the inventors verified that LF can promote the high expression of VDR at both the gene and protein levels. In order to confirm the role of this pathway in the promotion of osteoblast proliferation and differentiation by LF, the inventors first designed a VDR siRNA to achieve the purpose of transiently silencing VDR genes. The principle of siRNA is the post-transcriptional gene silencing mechanism that blocks the expression of corresponding gene. 20 μM VDR siRNA was added to osteoblasts, the proliferation rate of osteoblasts promoted by LF was detected by MTT method, and the ALP activity of osteoblasts promoted by LF was detected by enzyme-linked immunoassay.
The inventors first confirmed that LF promotes the proliferation and differentiation of osteoblasts through the regulation of the VDR pathway using the osteoblast model. Since the osteogenic effect of VDR is mainly achieved by vitamin D, in order to simulate the normal physiological environment, the inventors treated osteoblasts with both 1 nM of […] (the active form of vitamin D) and LF, and then studied the proliferation and differentiation of osteoblasts.

[2] = system: VDR; experiment: effect of p38 and TGF-β/Smads pathway inhibitors on VDR expression promoted by LF; format: cell-based; settings: for effect of inhibitor on the expression of VDR promoted by LF in the cytoplasm: FIG. 17A; for effect of inhibitor on the expression of VDR promoted by LF in nucleus: FIG. 17B
Protocol: In order to verify the mechanism of LF for promoting the high expression of VDR, firstly, inhibitors were used in the cytoplasm to inhibit the extracellular signaling pathway to detect the promotion effect of LF on VDR. The p38 inhibitor SB203580 and the TGF-β/smads pathway inhibitor SB431542 were added to detect the expression of VDR promoted by LF.
Since VDR mainly functions in the nucleus, after inhibiting the pathway using SB203580 and SB431542 inhibitors, the expression of VDR promoted by LF in nucleus was detected.

C=C1/C(=C\C=C2/CCC[C@]3(C)[C@@H]([C@H](C)CCCC(C)(C)O)CC[C@@H]23)C[C@@H](O)C[C@@H]1O [1.25(OH)2D3, reference compound]
effect of the presence of 1.25(OH)2D3 on the osteogenic activity of LF [1]: does not affect

NC(=O)c1ccc(-c2nc(-c3ccc4c(c3)OCO4)c(-c3ccccn3)[nH]2)cc1 [SB431542]
effect of inhibitor on the expression of VDR promoted by LF in the cytoplasm [2]: no significant effect | effect of inhibitor on the expression of VDR promoted by LF in nucleus [2]: no significant effect

C[S+]([O-])c1ccc(-c2nc(-c3ccncc3)c(-c3ccc(F)cc3)[nH]2)cc1 (centres unmarked) [SB203580]
effect of inhibitor on the expression of VDR promoted by LF in the cytoplasm [2]: no significant effect | effect of inhibitor on the expression of VDR promoted by LF in nucleus [2]: no significant effect
